Results on one compound are retold here after EP4786468A1, “CRYSTALLINE FORM OF HDAC6 INHIBITOR AND PREPARATION METHOD THEREFOR” (Suzhou Genhouse Bio Co., Ltd., priority 2023, dated 2025).

Data set [1] in a line: Mouse brain-to-plasma drug concentration ratio. Type of data set: in vivo, mice. As to the method: The actual body weight of the mice was measured on the day of dosing and the dose volume was calculated. Each group consisted of 9 mice. The compound was administered as a single intravenous (IV) injection or a single oral gavage (PO). Whole blood samples were collected via orbital bleeding at specified time points. After blood collection, samples were immediately transferred to labeled commercial tubes containing K2-EDTA (0.85-1.15 mg), then centrifuged (3200 x g, 4°C, 10 minutes) to obtain plasma. The plasma was transferred to pre-cooled centrifuge tubes, flash-frozen on dry ice, and stored in an ultra-low temperature freezer at -60°C or lower until LC-MS/MS analysis. 20 µL of plasma sample or brain tissue homogenate was added to 80 µL of internal standard solution (50 ng/mL propafenone in acetonitrile). The plate was sealed at 165 °C using a plate sealer, vortexed for 10 min on a microplate shaker (maximum speed), and centrifuged at 4000 rpm for 20 min using a low-speed benchtop centrifuge. 10 µL of the supernatant was transferred and mixed with 90 µL of acetonitrile. After vortex mixing, the plate was sealed at 165 °C, vortexed again, and 1 µL of the supernatant was taken for LC-MS/MS analysis. The plasma concentration data of the compound were processed using a non-compartmental model with WinNonlin Version 6.3 (Pharsight, Mountain View, CA) pharmacokinetic software. Relevant pharmacokinetic parameters were calculated using the linear log trapezoidal method.

Data set [2] in a line: Phase I metabolic stability in liver microsomes. Type of data set: in vitro ADME, cynomolgus monkeys. Conditions: CLM. As to the method: Evaluation of the Phase I metabolic stability of the test compound in liver microsomes from CD-1 mice (MLM), Sprague-Dawley rats (RLM), beagle dogs (DLM), cynomolgus monkeys (CLM), and humans (HLM).
The animal and human liver microsomes used in this test system were purchased from Xenotech, Corning, or other qualified suppliers and stored in a freezer below -60°C before use.
The test and control compounds were incubated with animal and human liver microsomes at 37±1°C for a certain period, with a maximum incubation time of 60 minutes. Samples were taken at specified time points, and the reaction was terminated with acetonitrile or other organic solvents containing an internal standard. After centrifugation, the resulting supernatant was analyzed using liquid chromatography-tandem mass spectrometry (LC-MS/MS).
73.21 g of dipotassium hydrogen phosphate trihydrate and 10.78 g of potassium dihydrogen phosphate were dissolved in 4000 mL of ultrapure water. The pH of the solution was adjusted to 7.40±0.10 using 10% phosphoric acid or 1 M potassium hydroxide, with a final concentration of 100 mM. […]
Sample analysis was performed using liquid chromatography-tandem mass spectrometry (LC-MS/MS), without calibration curves and quality control samples. Semi-quantitative determination was performed using the ratio of the analyte peak area to the internal standard peak area. […]
On the technique in general: Liver microsomes are vesicles of endoplasmic reticulum, rich in cytochrome P450 enzymes.

For the next data set, the target named is T1, HDAC1 (Homo sapiens, UniProt Q13547).
T1 construct: purchased BPS
Briefly: HDAC subtype enzyme activity assay. Conditions: read-out: HDAC1 Inhibition Rate/%. Type of data set: biochemical.

The structures appear in SMILES notation.

T1 sequence (Q13547 whole entry, species assumed): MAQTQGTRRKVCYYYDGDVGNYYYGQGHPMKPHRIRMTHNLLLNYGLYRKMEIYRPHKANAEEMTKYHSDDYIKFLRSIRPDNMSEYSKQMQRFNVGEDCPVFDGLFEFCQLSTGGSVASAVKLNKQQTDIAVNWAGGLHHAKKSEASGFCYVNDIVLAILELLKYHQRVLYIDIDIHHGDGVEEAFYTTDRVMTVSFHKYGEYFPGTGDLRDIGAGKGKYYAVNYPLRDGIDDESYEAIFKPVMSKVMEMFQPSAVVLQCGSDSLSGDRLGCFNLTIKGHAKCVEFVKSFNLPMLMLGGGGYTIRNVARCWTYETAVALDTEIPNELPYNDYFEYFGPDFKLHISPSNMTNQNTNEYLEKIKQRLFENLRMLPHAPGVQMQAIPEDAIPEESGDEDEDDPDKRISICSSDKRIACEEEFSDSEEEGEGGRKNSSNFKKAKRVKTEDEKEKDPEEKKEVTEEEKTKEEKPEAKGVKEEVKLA
From the text for HDAC1: The IC50 was obtained by fitting with GraphPad Prism 7.0 software.

Turning to `O=C(N[C@@H]1CCCC[C@H]1N1Cc2ccc(-c3nnc(C(F)F)o3)cc2S1(=O)=O)C(F)F` [I], the “Brain Drug Concentration” value in data set [1] (2 mg/kg IV, 1 h) is 268 ng/mL; in data set [1] (2 mg/kg IV, 4 h), 149 ng/mL; in data set [1] (10mg/kg PO, 1 h), 882 ng/mL; in data set [1] (10mg/kg PO, 4 h), 435 ng/mL. Besides, the “Plasma Drug Concentration” value is 1090 ng/mL in data set [1] (2 mg/kg IV, 1 h); 595 ng/mL in data set [1] (2 mg/kg IV, 4 h); 4993 ng/mL in data set [1] (10mg/kg PO, 1 h); 2833 ng/mL in data set [1] (10mg/kg PO, 4 h). For the same compound, in data set [2] (60 min, buffer instead of NADPH regeneration system), the “Remaining Rate (NCF=60 min)” value came to 101.5%. Also, the “Remaining Rate (T=60 min)” value in data set [2] (60 min with NADPH regeneration system) was found to be 88.8%. The inhibition at 1 µM at HDAC1 was -11.9%. In addition, on HDAC1, the inhibition at 10 µM is -3.91%.
